# US20230225990A1, “DIMETHYL SULFONE FOR TREATMENT OF CHRONICALLY HEAT STRESSED POULTRY” (Evonik Operations GmbH, priority 2020, published 2023)
# Marks after values point to notes of the source that are not given here.
# Test system: male broilers subjected to chronic cyclic heat stress
# Assay: Animal performance (BW, ADG, ADFI, F:G, mortality, EPEF) with chronic cyclic heat stress in the finisher phase
# Format: in vivo, broiler chickens (Ross 308)
# Conditions: for FIhs (percentage of total feed intake consumed during hours of heat stress): 6 h heat stress per day, d-24 till d-39; for F:G corrected: total d0-d39, corrected to final body weight of 3050 g
# From the text: The experimental design consisted of one control group (T1) and two other groups receiving the control diet supplemented with increasing levels of DMS (dimethyl sulfone), specifically 0.1% DMS (T2) and 0.2% DMS (T3). Treatments were replicated in 12 pens each in a completely randomized block design. Block refers to physical allocation in the experimental facility. All the animal trial was realized in compliance with the Ethics Committee of Faculty of Veterinary Medicine (Ghent University, EC2018-71).
# The experiment was conducted at the experimental facilities of the Department of Animal Sciences and Aquatic Ecology of Ghent University, located in Melle, Belgium. A total of 792 male broiler chickens (Ross 308, Aviagen Group) were provided by Vervaeke-Belavi hatchery (Tielt, Belgium). Larger treatment effects are expected with males, as they are more sensitive to heat stress (HS) (Cahaner and Leenstra, 1992). The experiment consisted in three rearing phases: starter (from d-0 to d-10), grower (from d-10 to d-21) and finisher (from d-21 to d-39). The one-day old chicks were weighted and equally spread among the pens according to their body weight (BW). Pens were randomly allocated to the treatment groups. The initial average animal BW was 41.3±0.31 g at the beginning of the experiment. The newly selected chicks were housed in a single climate-controlled room, which contained 36 pens of 22 animals each. […] The room was equipped with liner drinkers (two nipples per pen), and each pen had one tube-type metallic feeder. Temperature in starter and grower phase was set to decrease linearly from 34° C., at d-0 until a basal temperature of 22° C., at d-24. The light of the room was turned on 23 h in period d-0 to d-7, and then turned on at 4:00 and switched off at 22:00 during the rest of the experiment (18L:6D).
# The finisher period started at d-21, and the chronic cyclic heat stress (HS) protocol was applied from d-24 until d-39. Starting from d-24, the temperature was increased from 22° C. to 34° C. for 6 hours per day (from 9:00 to 15:00) with relative air humidity (RH) between 52 and 58%. From 8:00 to 9:00, the temperature was increased from 22° C. to 34° C., and from 15:00 to 16:00, the temperature was decreased from 34° C. to 22° C. The rest of the day the temperature was 22° C. The room was equipped with heaters with thermostats, and air circulators to enable the desired temperature and RH to be maintained, providing sufficient ventilation and air conditions. RH was adjusted with manual spraying of water on stable walls, periodically. The temperature and the RH were recorded at 10-min intervals with a dry bulb thermo-hygrometer (Escort RH iLog, Escort Verification Technologies Inc., Buchanan, United States).
# Wheat and soybean meal-based feeds were formulated to meet the nutrient requirements of broiler chickens, according to Ross308 recommendations or slightly lower to avoid excessive mortality in the finisher phase. […] The final formulation was approved by the commissioner. The test substance dimethyl sulfone was added on top at 0.1 and 0.2% in T2 and T3 in all rearing phases, respectively. Diets were processed by Research Dietary Services (RDS, Wijk bij Duurstede, The Netherlands) and delivered to Ghent University. All the diets were provided as pellets during all rearing phases. The chickens were fed ad libitum and had free access to water during the whole experiment.
# For all performance indices, the pen is the experimental unit. Total feed intake (FI) was recorded for each rearing period. In addition, FI during HS period was recorded every day, weighing the feeders before (at 8:00) and after (at 16:00) HS every day. That allows the calculation of the relative FI during period with HS relative to the total FI for each day during HS (d-24 to d-39). The total body weight (BW) of each pen was recorded at d-0, d-10, d-21 and d-39, and divided by the number of chickens in the pen at that day to have the average BW for each pen. […]
# [1] = 0.1% DMS in diet (T2), d-24 to d-39, excluding pen 24
# [2] = 0.1% DMS in diet (T2), finisher d21-d39, heat stress d-24 till d-39
# [3] = 0.1% DMS in diet (T2), grower d10-d21
# [4] = 0.1% DMS in diet (T2), starter d0-d10
# [5] = 0.1% DMS in diet (T2), total d0-d39
# [6] = 0.2% DMS in diet (T3), d-24 to d-39, excluding pen 24
# [7] = 0.2% DMS in diet (T3), finisher d21-d39, heat stress d-24 till d-39
# [8] = 0.2% DMS in diet (T3), grower d10-d21
# [9] = 0.2% DMS in diet (T3), starter d0-d10
# [10] = 0.2% DMS in diet (T3), total d0-d39
structure (smiles),measurement,setting,value
"CS(C)(=O)=O [DMS, dimethyl sulfone]",FIhs (percentage of total feed intake consumed during hours of heat stress),0.1% DMS in diet (T2),27.9%
same,Cases of mortality,[1],10
same,Cases of mortality+culling,[1],12
same,Cases of mortality+culling,"0.1% DMS in diet (T2), d-24 to d-39, pen 24 included",17
same,ADFI,[2],179 g/day
same,ADG,[2],106 g/day
same,F:G,[2],1.71
same,Final BW,[2],3100 g
same,Mortality,[2],4.7%
same,Mortality + culling,[2],6.0%
same,ADFI,[3],103 g/day
same,ADG,[3],75.5^a g/d
same,ADG higher as compared to control,[3],2.6%
same,F:G,[3],1.36^b
same,F:G reduced as compared to control,[3],6 points
same,Final BW,[3],1189 g
same,Mortality,[3],1.1%
same,Mortality + culling,[3],1.1%
same,ADFI,[4],32.5 g/day
same,ADG,[4],31.7 g/day
same,F:G,[4],1.03
same,Final BW,[4],359 g
same,Mortality,[4],0.0%
same,Mortality + culling,[4],0.0%
same,ADFI,[5],116 g/day
same,ADG,[5],78.4 g/day
same,EPEF (European production efficiency factor),[5],488
same,F:G,[5],1.53
same,Mortality,[5],5.9%
same,Mortality + culling,[5],7.3%
same,F:G corrected,0.1% DMS in diet (T2),1.54
same,FIhs (percentage of total feed intake consumed during hours of heat stress),0.2% DMS in diet (T3),27.9%
same,Cases of mortality,[6],8
same,Cases of mortality+culling,[6],8
same,Cases of mortality+culling,"0.2% DMS in diet (T3), d-24 to d-39, pen 24 included",8
same,ADFI,[7],178 g/day
same,ADG,[7],104 g/day
same,F:G,[7],1.72
same,Final BW,[7],3066 g
same,Mortality,[7],3.1%
same,Mortality + culling,[7],3.1%
same,ADFI,[8],102 g/day
same,ADG,[8],76.1^a g/d
same,ADG higher as compared to control,[8],3.4%
same,F:G,[8],1.35^b
same,F:G reduced as compared to control,[8],7 points
same,Final BW,[8],1194 g
same,Mortality,[8],0.4%
same,Mortality + culling,[8],0.8%
same,ADFI,[9],32.3 g/day
same,ADG,[9],31.6 g/day
same,F:G,[9],1.03
same,Final BW,[9],357 g
same,Mortality,[9],0.8%
same,Mortality + culling,[9],0.8%
same,ADFI,[10],117 g/day
same,ADG,[10],77.6 g/day
same,EPEF (European production efficiency factor),[10],491
same,F:G,[10],1.54
same,Mortality,[10],4.2%
same,Mortality + culling,[10],4.5%
same,F:G corrected,0.2% DMS in diet (T3),1.54
